Laboratory results from article PMC6290777, “Inhalation of the prodrug PI3K inhibitor CL27c improves lung function in asthma and fibrosis” (Nature Communications, 2018).

Key:
Assay type in all cases: in vivo, BALB/c mice
[1] = system: OVA-induced acute allergic asthma; assay: OVA-induced acute allergic asthma model; details: systemic treatment, i.p.
Description: On Days 1 and 14, BALB/c mice (6–8 weeks) received an intraperitoneal injection (i.p.) of a solution containing 0.5 mg/ml OVA and 5 mg/ml Alum (described in Fig. 2). Untreated controls were injected with a solution of 5 mg/ml Alum. […] Untreated control groups included mice challenged with PBS alone. On day 29, mice were sacrificed, and samples were collected for further analysis.
(§1) BALF was performed to obtain leukocytes from alveolar space. The trachea was exposed and a 1.7-mm-outside-diameter polyethylene catheter was inserted. BAL was performed by washing the lungs three-times with three different 500 µl aliquots of PBS. BALF samples were centrifuged at 600 × g for 10 min at 4 °C on a histology glass slide and stained with Diff Quick (MICROPTIC, #DQ-ST). The number of leukocytes and differential counts of different population were obtained evaluating the percentage leukocyte populations over the total cell number.
(§2) IL-5, IL-13, eotaxin, TGF-β, KC, IL-17A, and MCP-1 levels in the BALF and anti-OVA IgE levels in serum were measured by ELISA technique using commercial DuoSet kits R&D Systems according to the instructions of the manufacturer. Results were expressed in levels of cytokines per ml of […] (pg/ml) or arbitrary units (A.U.).
Immunohistochemistry for CD18 was performed using the streptavidin-biotin-peroxidase method in formalin-fixed, paraffin-embedded tissue sections (5 µm thick) mounted on poly-L-lysine-coated microscope slides. Lung cross-sections were deparaffinized and rehydrated through xylene and graded alcohols. After antigen retrieval, endogenous peroxidase was blocked (15 min) with 3% (v/v) hydrogen peroxide and washed in phosphate-buffered saline (PBS). Sections were incubated overnight (4 °C) with primary rabbit anti-CD18 antibody (Acris Antibodies GmbH, Germany, Cat. Number B0842-1) diluted 1:400 in PBS plus bovine serum albumin (PBS-BSA) or rabbit anti/PAkt (S473) diluted 1:100 in PBS/BSA. The slides were then incubated with biotinylated goat anti-rabbit antibody (Dako Agilent Pathology Solution, USA) diluted 1:1000 in PBS/BSA. After washing, the slides were incubated with avidin-biotin-horseradish peroxidase conjugate (Dako Agilent Pathology Solution, USA) for 30 min, according to the manufacturer’s instructions. CD18 and PAkt-positive cells were visualized with the chromogen 3,3′-diaminobenzidine (DAKO liquid DAB + substrate chromogen system, CA, USA). Slides were counterstained with Harry’s hematoxylin, dehydrated in a graded alcohol series, cleared in xylene, and cover slipped.
Lung, liver, and heart samples were collected for western blot detection of akt phosphorilation levels. Protein samples were resolved by 10% SDS-PAGE and transferred on to PVDF (Immobilon™-P) membranes. The membranes were blocked with 5% BSA in 1x TBS with 0.3% Tween 20 for 30 min at […]. Then, the membranes were incubated overnight at 4 °C with primary antibodies (phosphorylated Akt serine 473, 1:1000, Cell Signaling Technology, Cat. Number 4060) and 1 h with HRP-conjugated secondary antibody (1:10000). The blots were visualized in ECL solution for 1 min and images were captured on Luminescent Image Analyser (ChemiDoc Imaging Systems, Bio-Rad Laboratories, USA). For loading control, the blots were striped and reassessed with pan Akt (1:1000) antibody. For quantification, specific phosphorylation was calculated as the ratio of signals for phosphorylated Akt to the signal of total Akt detected. Values of unstimulated samples were set to 1.0. Uncropped scans of the most important blots are provided as a supplementary figure in the Supplementary Information (Supplementary Fig. 15).

[2] = system: glucocorticoid-resistant neutrophilic asthma; assay: Glucocorticoid-resistant asthma model; details: CL27c 2 mg/ml aerosol; dexamethasone 5 mg/kg i.p.
Description: as §1
(§3) Mice were anesthetized with a subcutaneous injection of ketamine and xylazine (130 mg/Kg ketamine and 8.5 mg/Kg xylazine) to maintain spontaneous breathing under anesthesia. Mice were tracheostomized, placed in a body plethysmograph and connected to a computer-controlled ventilator (Forced Pulmonary Maneuver System®, Buxco Research Systems©, Wilmington, North Carolina USA). First, an average breathing frequency of 160 breaths/min was imposed to the anesthetized animal by a pressure-controlled ventilation until a regular breathing pattern and complete expiration at each breathing cycle was obtained. Under mechanical respiration, respiratory flow and airway pressure were measured to compute dynamic compliance (Cdyn) and lung resistance (RL). To measure the TLC, pressure–volume maneuvers were performed, where lungs were inflated to a standard pressure of +30 cm H2O and then let slowly exhale until a negative pressure of −30 cm H2O was reached. To measure the FEV Fast-Flow Volume maneuvers was performed. In this maneuver, lungs were first inflated to +30 cm H2O (TLC) and, immediately, a negative pressure (−30 cm H2O) was applied in order to enforce expiration. To evaluate AHR, the same mice used in previous maneuvers (basal condition) received Metacholine, 1 mg/Kg (Acetyl-β-methylcholine chloride, A-2251, Sigma-Aldrich St.Louis, MO,USA) i.v., and 20 sec after, a new set of maneuvers were conducted to assess RL changes. Suboptimal maneuvers were rejected and for each test in every single mouse at least three acceptable maneuvers were conducted to obtain a reliable mean for all numeric parameters.
as §2
On day 1 BALB/c mice received systemic immunization by subcutaneous injection of 20 µg of chicken egg ovalbumin (OVA grade V, >98% pure; Sigma, St Louis, MO) in saline, emulsified in 75 µL CFA (Complete Freund’s Adjuvant; Sigma-Aldrich) (Figure 5)[52]. On days 25–28 mice were exposed to aerosolised ovalbumin (1% in saline) for 20 min per day. Mice were exposed during 30 min to aerosolized CL27c (2 mg/ml dissolved in 0.5 % tylaxopol/saline solution) or vehicle (0.5% tyloxapol/saline solution), or to systemic treatment with dexamethasone (5 mg/kg i.p. injection). Untreated control groups included mice challenged with PBS alone. On day 29, mice were sacrificed, and samples were collected for further analysis.
The left lung was removed and fixed in 4% neutral phosphate-buffered formalin (pH 7.4)[10]. The tissues were dehydrated gradually in ethanol, embedded in paraffin, cut into 4 µm sections, stained with H&E, Gomori’s trichrome and periodic acid schiff (PAS), and examined under light microscopy by a pathologist in a double blinded manner. Images of lung sections were captured with a digital camera (Optronics DEI-470) connected to a microscope (Olympus IX70) with a magnification of ×40 or ×100. Inflammation was scored according to modification of existing protocols[53] and to the histopathology criteria reported in Supplementary Table 4.

[3] = system: OVA-induced chronic allergic asthma; assay: OVA-induced chronic allergic asthma model; details: CL27c 2 mg/ml aerosol or dexamethasone 5 mg/kg
Description: as §1, §3
On day 1, BALB/c mice received systemic immunization by subcutaneous injection of 10 µg of chicken egg ovalbumin (OVA grade V, >98% pure; Sigma, St Louis, MO) diluted in 2 mg/mL Al(OH)3 followed by a booster injection at the day 14 (described in fig. 3). Nasal challenges were performed starting at the day 28, by inhalational exposure to aerosolised ovalbumin (1% ovalbumin in saline 0,9%) for 20 min per day, in alternated days during 16 days (day 28, 30, 32, 34, 36, 38, 40, 42 and 44). At the same time, mice received daily treatment from day 28 to 44 with CL27c (2 mg/ml dissolved in 0.5 % tylaxopol/saline solution, aerosolized for 30′) or vehicle (0.5% tyloxapol/saline solution, aerosolized for 30′), or dexamethasone (5 mg/kg i.p. injection). Untreated control groups included mice challenged with PBS alone. On day 45, mice were sacrificed, and samples were collected for further analysis.
as §2
The left lung was removed and fixed in 4% neutral phosphate-buffered formalin (pH 7.4)[10]. The tissues were dehydrated gradually in ethanol, embedded in paraffin, cut into 4 µm sections, stained with H&E, Gomori’s trichrome and periodic acid schiff (PAS), and examined under light microscopy by a pathologist in a double blinded manner. Images of lung sections were captured with a digital camera (Optronics DEI-470) connected to a microscope (Olympus IX70) with a magnification of ×40 or ×100. […]

Structure (SMILES): C[C@@H]1C[C@H]2[C@@H]3CCC4=CC(=O)C=C[C@]4(C)[C@@]3(F)[C@@H](O)C[C@]2(C)[C@@]1(O)C(=O)CO [Dexamethasone, reference compound]
- BALF accumulation of inflammatory cells [1]: significantly reduced this infiltration
- histopathology: overall score of lung damage / tissue inflammation [2]: failed to provide an effect
- accumulation of inflammatory cells in peribronchial and perivascular spaces [3]: significantly decreased
- lung function: lung resistance (RL) and dynamic compliance (Cdyn) [3]: normalize lung function
- peribronchial fibrosis (fibrotic airway remodeling) [3]: significantly reduced
